Measured values taken from US20250188076A1, “SOLID STATE FORMS OF TOLEBRUTINIB AND OF TOLEBRUTINIB SALTS” (TEVA PHARMACEUTICAL INTERNATIONAL GMBH, priority 2022, published 2025).

Assay: Solubility comparison in water and aqueous acetate buffer at pH 4.5

solubility: < 200 µg/mL
Substance: Tolebrutinib [Tolebrutinib Form CSI]
